In ChEMBL document CHEMBL1152560, “Substituted 2-arylbenzothiazoles as kinase inhibitors: hit-to-lead optimization” (Bioorg Med Chem, 2009):

Assays:
[1] = molecular target: CDK9/cyclin T1 (Homo sapiens) (UniProt O60563+P50750); assay: Residual activity of CDK9/Cyclin T at 1 uM by microplate scintillation counting; type: protein-complex assay
[2] = molecular target: Serine/threonine-protein kinase 26 (Homo sapiens) (UniProt Q9P289); assay: Residual activity of MST4 at 1 uM by microplate scintillation counting
[3] = molecular target: 5'-AMP-activated protein kinase catalytic subunit alpha-1 (Homo sapiens) (UniProt Q13131); assay: Residual activity of AMPK-alpha1 fl at 0.1 uM by microplate scintillation counting
[4] = molecular target: Ribosomal protein S6 kinase alpha-1 (Homo sapiens) (UniProt Q15418); assay: Residual activity of RPS6KA1 at 10 uM by microplate scintillation counting
[5] = molecular target: Tyrosine-protein kinase receptor UFO (Homo sapiens) (UniProt P30530); assay: Residual activity of AXL at 10 uM by microplate scintillation counting
[6] = molecular target: Casein kinase I isoform delta (Homo sapiens) (UniProt P48730); assay: Residual activity of CK1delta at 1 uM by microplate scintillation counting
Aurora kinase B = Aurora kinase B (Homo sapiens, UniProt Q96GD4); assay: Residual activity of Aurora-B at 10 uM by microplate scintillation counting
[7] = molecular target: T1, Serine/threonine-protein kinase D1 (Homo sapiens) (UniProt Q15139); assay: Residual activity of PKCmu at 0.1 uM by microplate scintillation counting
T1 sequence (whole entry): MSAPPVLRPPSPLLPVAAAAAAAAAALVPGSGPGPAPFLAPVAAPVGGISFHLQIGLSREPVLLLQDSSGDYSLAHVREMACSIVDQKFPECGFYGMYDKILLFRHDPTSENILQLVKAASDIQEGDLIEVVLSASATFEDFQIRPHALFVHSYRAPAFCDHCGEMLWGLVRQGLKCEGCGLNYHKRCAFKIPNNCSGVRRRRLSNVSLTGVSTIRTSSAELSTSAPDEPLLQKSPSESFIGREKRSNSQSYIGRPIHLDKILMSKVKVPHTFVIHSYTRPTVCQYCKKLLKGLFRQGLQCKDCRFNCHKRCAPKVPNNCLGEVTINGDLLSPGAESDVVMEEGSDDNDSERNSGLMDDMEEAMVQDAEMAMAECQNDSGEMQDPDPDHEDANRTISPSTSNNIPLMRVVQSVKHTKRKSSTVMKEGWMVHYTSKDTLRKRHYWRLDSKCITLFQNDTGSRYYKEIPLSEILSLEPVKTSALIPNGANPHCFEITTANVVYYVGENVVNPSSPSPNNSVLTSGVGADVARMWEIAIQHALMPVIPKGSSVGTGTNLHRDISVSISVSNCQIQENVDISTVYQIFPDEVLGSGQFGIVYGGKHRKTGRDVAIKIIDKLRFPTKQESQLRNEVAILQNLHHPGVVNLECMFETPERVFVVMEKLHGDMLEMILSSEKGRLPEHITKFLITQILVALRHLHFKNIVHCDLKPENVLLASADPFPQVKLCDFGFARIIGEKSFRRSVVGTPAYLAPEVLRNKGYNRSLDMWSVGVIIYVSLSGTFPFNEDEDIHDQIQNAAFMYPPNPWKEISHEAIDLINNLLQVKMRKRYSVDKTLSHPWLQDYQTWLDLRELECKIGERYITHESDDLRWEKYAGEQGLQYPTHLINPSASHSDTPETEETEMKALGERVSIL

[8] = molecular target: T2, Serine/threonine-protein kinase TAO2 (Homo sapiens) (UniProt Q9UL54); assay: Residual activity of TAOK2 at 10 uM by microplate scintillation counting
T2 sequence (whole entry): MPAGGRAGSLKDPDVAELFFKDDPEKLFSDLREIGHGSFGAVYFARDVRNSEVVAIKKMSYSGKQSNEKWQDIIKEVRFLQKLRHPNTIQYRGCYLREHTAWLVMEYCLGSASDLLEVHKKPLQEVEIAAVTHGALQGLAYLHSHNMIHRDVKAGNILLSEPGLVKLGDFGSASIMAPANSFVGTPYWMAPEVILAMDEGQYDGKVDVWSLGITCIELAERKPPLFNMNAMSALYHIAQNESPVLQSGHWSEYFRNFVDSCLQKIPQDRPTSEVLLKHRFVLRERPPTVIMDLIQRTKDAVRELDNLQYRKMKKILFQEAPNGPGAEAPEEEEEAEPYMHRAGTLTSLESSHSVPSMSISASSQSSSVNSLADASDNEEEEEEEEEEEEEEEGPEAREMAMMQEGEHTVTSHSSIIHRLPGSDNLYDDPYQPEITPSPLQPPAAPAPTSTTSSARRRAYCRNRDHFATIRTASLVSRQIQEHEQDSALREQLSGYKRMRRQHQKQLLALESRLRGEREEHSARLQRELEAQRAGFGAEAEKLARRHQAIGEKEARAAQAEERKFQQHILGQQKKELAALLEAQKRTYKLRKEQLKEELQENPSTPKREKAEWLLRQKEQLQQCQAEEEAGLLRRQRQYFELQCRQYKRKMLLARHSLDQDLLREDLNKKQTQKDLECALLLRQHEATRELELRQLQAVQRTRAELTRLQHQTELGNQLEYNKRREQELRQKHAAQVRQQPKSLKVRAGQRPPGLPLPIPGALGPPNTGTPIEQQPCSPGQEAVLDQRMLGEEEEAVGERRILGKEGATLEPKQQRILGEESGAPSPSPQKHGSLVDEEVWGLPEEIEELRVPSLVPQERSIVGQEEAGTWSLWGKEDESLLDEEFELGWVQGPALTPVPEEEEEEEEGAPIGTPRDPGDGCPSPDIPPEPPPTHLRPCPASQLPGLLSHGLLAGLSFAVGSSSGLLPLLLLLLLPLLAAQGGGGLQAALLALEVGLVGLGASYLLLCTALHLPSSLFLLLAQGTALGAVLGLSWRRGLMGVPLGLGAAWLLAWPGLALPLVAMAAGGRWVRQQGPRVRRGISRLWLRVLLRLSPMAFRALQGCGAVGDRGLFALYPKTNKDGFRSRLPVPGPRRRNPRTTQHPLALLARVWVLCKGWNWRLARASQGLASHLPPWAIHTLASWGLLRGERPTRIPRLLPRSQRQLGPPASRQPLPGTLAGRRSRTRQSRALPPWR

Chain of 5'-AMP-activated protein kinase catalytic subunit alpha-1 (Homo sapiens) (Q13131 whole entry, looked up): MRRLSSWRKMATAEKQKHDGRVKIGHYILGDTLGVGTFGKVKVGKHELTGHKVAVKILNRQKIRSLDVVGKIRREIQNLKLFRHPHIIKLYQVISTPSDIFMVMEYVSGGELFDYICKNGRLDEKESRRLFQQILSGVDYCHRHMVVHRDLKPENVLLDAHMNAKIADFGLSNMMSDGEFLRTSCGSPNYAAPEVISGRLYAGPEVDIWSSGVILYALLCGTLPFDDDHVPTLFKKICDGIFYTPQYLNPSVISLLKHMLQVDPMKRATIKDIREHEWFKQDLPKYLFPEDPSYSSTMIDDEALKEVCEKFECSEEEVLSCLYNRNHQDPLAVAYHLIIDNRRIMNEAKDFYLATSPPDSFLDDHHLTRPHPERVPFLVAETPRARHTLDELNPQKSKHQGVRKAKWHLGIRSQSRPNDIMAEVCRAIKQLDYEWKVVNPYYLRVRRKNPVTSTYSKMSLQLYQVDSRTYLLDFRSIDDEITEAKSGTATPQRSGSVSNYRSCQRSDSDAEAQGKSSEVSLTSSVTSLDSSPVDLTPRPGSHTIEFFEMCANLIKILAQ
Chain of Serine/threonine-protein kinase 26 (Homo sapiens) (Q9P289 2-416 limits assumed): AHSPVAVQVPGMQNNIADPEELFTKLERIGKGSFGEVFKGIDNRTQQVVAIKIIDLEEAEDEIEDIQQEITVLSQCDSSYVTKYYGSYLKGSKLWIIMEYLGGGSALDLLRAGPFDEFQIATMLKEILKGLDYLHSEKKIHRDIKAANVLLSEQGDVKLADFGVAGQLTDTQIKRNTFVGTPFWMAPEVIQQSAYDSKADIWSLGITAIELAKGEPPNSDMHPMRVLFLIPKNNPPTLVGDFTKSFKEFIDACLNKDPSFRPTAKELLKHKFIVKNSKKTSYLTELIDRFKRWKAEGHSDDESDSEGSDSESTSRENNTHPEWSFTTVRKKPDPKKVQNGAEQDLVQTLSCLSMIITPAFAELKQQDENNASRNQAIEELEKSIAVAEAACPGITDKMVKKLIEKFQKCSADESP
Chain of Tyrosine-protein kinase receptor UFO (Homo sapiens) (P30530 whole entry, canonical isoform): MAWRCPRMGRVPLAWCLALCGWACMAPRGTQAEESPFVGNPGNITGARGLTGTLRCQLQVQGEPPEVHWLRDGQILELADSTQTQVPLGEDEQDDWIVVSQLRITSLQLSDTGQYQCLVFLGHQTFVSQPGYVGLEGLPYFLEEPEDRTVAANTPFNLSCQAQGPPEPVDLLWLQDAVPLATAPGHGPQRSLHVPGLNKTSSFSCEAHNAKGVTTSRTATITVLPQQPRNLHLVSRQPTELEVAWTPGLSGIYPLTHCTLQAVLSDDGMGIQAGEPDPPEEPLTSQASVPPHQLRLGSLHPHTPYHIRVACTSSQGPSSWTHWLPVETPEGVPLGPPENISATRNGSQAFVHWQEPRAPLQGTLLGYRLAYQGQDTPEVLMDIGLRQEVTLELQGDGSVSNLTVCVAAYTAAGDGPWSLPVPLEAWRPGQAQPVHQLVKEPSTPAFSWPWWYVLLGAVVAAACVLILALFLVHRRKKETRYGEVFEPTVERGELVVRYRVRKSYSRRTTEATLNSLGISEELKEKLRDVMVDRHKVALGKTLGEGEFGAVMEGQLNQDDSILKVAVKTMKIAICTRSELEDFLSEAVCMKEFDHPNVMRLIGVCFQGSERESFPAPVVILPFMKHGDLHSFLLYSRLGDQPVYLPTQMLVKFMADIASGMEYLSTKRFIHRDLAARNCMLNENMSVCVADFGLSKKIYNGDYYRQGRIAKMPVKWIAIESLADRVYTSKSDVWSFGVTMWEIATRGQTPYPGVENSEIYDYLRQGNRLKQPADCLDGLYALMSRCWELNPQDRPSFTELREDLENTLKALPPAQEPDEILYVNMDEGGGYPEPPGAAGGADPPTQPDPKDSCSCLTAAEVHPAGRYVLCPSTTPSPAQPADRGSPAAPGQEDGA
Chain of Casein kinase I isoform delta (Homo sapiens) (P48730 whole entry, looked up, canonical isoform): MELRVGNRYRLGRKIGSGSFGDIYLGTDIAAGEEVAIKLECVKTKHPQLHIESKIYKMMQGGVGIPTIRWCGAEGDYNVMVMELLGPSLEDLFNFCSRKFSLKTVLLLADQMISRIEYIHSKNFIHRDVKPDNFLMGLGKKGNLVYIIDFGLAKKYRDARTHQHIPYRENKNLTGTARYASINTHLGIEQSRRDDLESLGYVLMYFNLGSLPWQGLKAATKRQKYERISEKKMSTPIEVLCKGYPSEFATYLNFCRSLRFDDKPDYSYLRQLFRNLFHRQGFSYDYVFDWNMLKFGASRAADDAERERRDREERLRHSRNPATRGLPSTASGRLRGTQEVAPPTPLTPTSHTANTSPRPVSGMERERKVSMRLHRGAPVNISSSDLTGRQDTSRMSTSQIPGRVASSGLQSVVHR
Chain of Ribosomal protein S6 kinase alpha-1 (Homo sapiens) (Q15418 whole entry): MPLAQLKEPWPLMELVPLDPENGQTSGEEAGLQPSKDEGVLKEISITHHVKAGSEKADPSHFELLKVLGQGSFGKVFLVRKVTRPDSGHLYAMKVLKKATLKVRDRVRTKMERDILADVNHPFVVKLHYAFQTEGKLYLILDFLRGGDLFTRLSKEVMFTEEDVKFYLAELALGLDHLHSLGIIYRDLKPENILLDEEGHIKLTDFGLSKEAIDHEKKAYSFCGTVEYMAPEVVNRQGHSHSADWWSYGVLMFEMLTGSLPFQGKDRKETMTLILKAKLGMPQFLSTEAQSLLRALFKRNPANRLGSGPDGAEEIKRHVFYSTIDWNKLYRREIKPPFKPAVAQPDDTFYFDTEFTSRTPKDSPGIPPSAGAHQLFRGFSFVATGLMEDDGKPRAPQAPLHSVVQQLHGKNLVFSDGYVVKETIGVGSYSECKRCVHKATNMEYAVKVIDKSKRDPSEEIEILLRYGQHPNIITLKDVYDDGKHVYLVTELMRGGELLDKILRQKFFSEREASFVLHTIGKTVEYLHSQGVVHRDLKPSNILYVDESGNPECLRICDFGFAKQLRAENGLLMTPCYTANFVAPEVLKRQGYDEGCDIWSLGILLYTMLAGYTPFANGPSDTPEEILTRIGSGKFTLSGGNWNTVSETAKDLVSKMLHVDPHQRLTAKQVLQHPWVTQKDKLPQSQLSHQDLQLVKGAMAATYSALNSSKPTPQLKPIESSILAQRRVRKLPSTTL
Chain of Aurora kinase B (Q96GD4 whole entry): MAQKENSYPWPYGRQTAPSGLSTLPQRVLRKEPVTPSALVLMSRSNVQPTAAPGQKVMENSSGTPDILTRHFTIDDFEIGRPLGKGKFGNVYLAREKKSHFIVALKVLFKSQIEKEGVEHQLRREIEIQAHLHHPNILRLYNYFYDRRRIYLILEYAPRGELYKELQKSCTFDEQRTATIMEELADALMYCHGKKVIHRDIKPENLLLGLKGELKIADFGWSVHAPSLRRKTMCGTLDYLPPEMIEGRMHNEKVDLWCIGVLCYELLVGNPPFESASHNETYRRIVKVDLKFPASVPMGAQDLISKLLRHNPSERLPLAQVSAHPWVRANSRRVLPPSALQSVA

Row | Compound | residual activity [1] [%] | residual activity [2] [%] | residual activity [3] [%] | residual activity [4] [%] | residual activity [5] [%] | residual activity [6] [%] | residual activity (Aurora kinase B) [%] | residual activity [7] [%] | residual activity [8] [%]
1 | COc1cc2c(Oc3ccc(-c4nc5ccccc5s4)cc3)ncnc2cc1OCCCN1CCN(C)CC1 | 102 | 109 | 94 | 206 | 125 | 96 | 5 | 91 | 141
2 | COc1cc2c(Oc3ccc(-c4nc5ccccc5s4)cc3F)ncnc2cc1OCCCN1CCN(C)CC1 | 92 | 109 | 86 | 222 | 54 | 102 | 3 | 81 | 129
3 | COc1cc2c(Oc3ccc(-c4nc5ccccc5s4)cc3)ncnc2cc1OCCCN1CCCC1 | 93 | 98 | 101 | 124 | 57 | 100 | 3 | 102 | 122
